Reference: ChEMBL document CHEMBL1201862, “PubChem BioAssay data set” (2004)
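Five compound concentrations were applied to cells in 96-well plates for 48 hours; endpoints were derived by simple linear interpolation of the resulting dose-response curve. Here, GI50 denotes the concentration required for 50% inhibition of growth.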 Calls of active or inactive are those of the source. Cut-off read from the data, not from the text of the source: active = GI50 up to about 1.1 µM and inactive = higher.

Legend:
Assay in all cases: growth of human tumour cells (NCI), 48 h
HOP-18 = tested on: HOP-18
A549 = tested on: A549
OVCAR-8 = tested on: OVCAR-8
RXF 393 = tested on: RXF 393
OVCAR-4 = tested on: OVCAR-4
DMS-114 = tested on: DMS-114
SF-268 = tested on: SF-268
TK-10 = tested on: TK-10
IGROV-1 = tested on: IGROV-1
M14 = tested on: M14
HL-60 = tested on: HL-60
HT-29 = tested on: HT-29
SK-MEL-2 = tested on: SK-MEL-2
KM12 = tested on: KM12
OVCAR-5 = tested on: OVCAR-5
SF-539 = tested on: SF-539
DMS-273 = tested on: DMS-273
SN12C = tested on: SN12C
NCI-H460 = tested on: NCI-H460
CAKI-1 = tested on: CAKI-1
LXFL 529 = tested on: LXFL 529
HOP-92 = tested on: HOP-92
SK-OV-3 = tested on: SK-OV-3
HCT-15 = tested on: HCT-15
U-251 = tested on: U-251
SNB-75 = tested on: SNB-75
A498 = tested on: A498
SR = tested on: SR
RXF 631 = tested on: RXF 631
HOP-62 = tested on: HOP-62
SK-MEL-28 = tested on: SK-MEL-28
SW-620 = tested on: SW-620
OVCAR-3 = tested on: OVCAR-3
UO-31 = tested on: UO-31
EKVX = tested on: EKVX
UACC-62 = tested on: UACC-62
CCRF-CEM = tested on: CCRF-CEM
SNB-78 = tested on: SNB-78
NCI-H226 = tested on: NCI-H226
HCT-116 = tested on: HCT-116
Malme-3M = tested on: Malme-3M
M19-MEL = tested on: M19-MEL
SF-295 = tested on: SF-295
LOX IMVI = tested on: LOX IMVI
RPMI-8226 = tested on: RPMI-8226
ACHN = tested on: ACHN
SK-MEL-5 = tested on: SK-MEL-5
DLD-1 = tested on: DLD-1
UACC-257 = tested on: UACC-257
NCI-H522 = tested on: NCI-H522
KM-20L2 = tested on: KM-20L2
COLO 205 = tested on: COLO 205
K562 = tested on: K562
786-0 = tested on: 786-0
XF498 = tested on: XF498
NCI-H23 = tested on: NCI-H23
MOLT-4 = tested on: MOLT-4
SNB-19 = tested on: SNB-19
HCC 2998 = tested on: HCC 2998

CN(C)/C=N/c1nc2ncn(CCOC(=O)c3ccccc3)c2c(=O)[nH]1
GI50 (HOP-18): > 100 µM (inactive)
GI50 (A549): > 100 µM (inactive)
GI50 (OVCAR-8): > 100 µM (inactive)
GI50 (RXF 393): > 100 µM (inactive)
GI50 (OVCAR-4): > 100 µM (inactive)
GI50 (DMS-114): > 100 µM (inactive)
GI50 (SF-268): > 100 µM (inactive)
GI50 (TK-10): > 100 µM (inactive)
GI50 (IGROV-1): > 100 µM (inactive)
GI50 (M14): > 100 µM (inactive)
GI50 (HL-60): > 100 µM (inactive)
GI50 (HT-29): > 100 µM (inactive)
GI50 (SK-MEL-2): > 100 µM (inactive)
GI50 (KM12): > 100 µM (inactive)
GI50 (OVCAR-5): > 100 µM (inactive)
GI50 (SF-539): > 100 µM (inactive)
GI50 (DMS-273): > 100 µM (inactive)
GI50 (SN12C): > 100 µM (inactive)
GI50 (NCI-H460): > 100 µM (inactive)
GI50 (CAKI-1): > 100 µM (inactive)
GI50 (LXFL 529): > 100 µM (inactive)
GI50 (HOP-92): > 100 µM (inactive)
GI50 (SK-OV-3): > 100 µM (inactive)
GI50 (HCT-15): > 100 µM
GI50 (U-251): > 100 µM (inactive)
GI50 (SNB-75): > 100 µM (inactive)
GI50 (A498): > 100 µM (inactive)
GI50 (SR): > 100 µM (inactive)
GI50 (RXF 631): > 100 µM (inactive)
GI50 (HOP-62): > 100 µM (inactive)
GI50 (SK-MEL-28): > 100 µM (inactive)
GI50 (SW-620): > 100 µM (inactive)
GI50 (OVCAR-3): > 100 µM (inactive)
GI50 (UO-31): > 100 µM (inactive)
GI50 (EKVX): > 100 µM (inactive)
GI50 (UACC-62): > 100 µM (inactive)
GI50 (CCRF-CEM): > 100 µM (inactive)
GI50 (SNB-78): > 100 µM (inactive)
GI50 (NCI-H226): > 100 µM (inactive)
GI50 (HCT-116): > 100 µM (inactive)
GI50 (Malme-3M): > 100 µM (inactive)
GI50 (M19-MEL): > 100 µM (inactive)
GI50 (SF-295): > 100 µM (inactive)
GI50 (LOX IMVI): > 100 µM (inactive)
GI50 (RPMI-8226): > 100 µM (inactive)
GI50 (ACHN): > 100 µM (inactive)
GI50 (SK-MEL-5): > 100 µM (inactive)
GI50 (DLD-1): > 100 µM (inactive)
GI50 (UACC-257): > 100 µM (inactive)
GI50 (NCI-H522): > 100 µM (inactive)
GI50 (KM-20L2): > 100 µM (inactive)
GI50 (COLO 205): > 100 µM (inactive)
GI50 (K562): > 100 µM (inactive)
GI50 (786-0): > 100 µM (inactive)

N=C(N)n1ncc(Cl)c(Cl)c1=O
GI50 (HOP-18): 1.38 µM (inactive)
GI50 (A549): 17.1 µM (inactive)
GI50 (XF498): 1.81 µM (inactive)
GI50 (OVCAR-8): 2.15 µM (inactive)
GI50 (OVCAR-4): 1.91 µM (inactive)
GI50 (DMS-114): 1.85 µM (inactive)
GI50 (SF-268): 3.11 µM (inactive)
GI50 (TK-10): 19.4 µM (inactive)
GI50 (IGROV-1): 11.1 µM (inactive)
GI50 (M14): 1.98 µM (inactive)
GI50 (HL-60): 2.21 µM (inactive)
GI50 (SK-MEL-2): 2.47 µM (inactive)
GI50 (NCI-H23): 2.45 µM (inactive)
GI50 (KM12): 6.5 µM (inactive)
GI50 (OVCAR-5): 15.2 µM (inactive)
GI50 (SF-539): 2.34 µM (inactive)
GI50 (DMS-273): 2.28 µM (inactive)
GI50 (SN12C): 2.69 µM (inactive)
GI50 (NCI-H460): 5.97 µM (inactive)
GI50 (CAKI-1): 1.81 µM (inactive)
GI50 (LXFL 529): 1.8 µM (inactive)
GI50 (HOP-92): 2.43 µM (inactive)
GI50 (SK-OV-3): 17.9 µM (inactive)
GI50 (HCT-15): 1.87 µM
GI50 (U-251): 7.11 µM (inactive)
GI50 (SNB-75): 2.99 µM (inactive)
GI50 (A498): 18.6 µM (inactive)
GI50 (RXF 631): 1.81 µM (inactive)
GI50 (SK-MEL-28): 2.32 µM (inactive)
GI50 (SW-620): 1.88 µM (inactive)
GI50 (OVCAR-3): 1.91 µM (inactive)
GI50 (MOLT-4): 2.02 µM (inactive)
GI50 (UO-31): 2.38 µM (inactive)
GI50 (EKVX): 2.36 µM (inactive)
GI50 (UACC-62): 2.48 µM (inactive)
GI50 (CCRF-CEM): 2.15 µM (inactive)
GI50 (SNB-78): 1.98 µM (inactive)
GI50 (NCI-H226): 5.25 µM (inactive)
GI50 (HCT-116): 1.73 µM (inactive)
GI50 (Malme-3M): 2.21 µM (inactive)
GI50 (SNB-19): 4.16 µM (inactive)
GI50 (M19-MEL): 1.69 µM (inactive)
GI50 (SF-295): 10.8 µM (inactive)
GI50 (RPMI-8226): 2.28 µM (inactive)
GI50 (ACHN): 3.81 µM (inactive)
GI50 (SK-MEL-5): 4.39 µM (inactive)
GI50 (DLD-1): 2.38 µM (inactive)
GI50 (UACC-257): 2.13 µM (inactive)
GI50 (NCI-H522): 1.79 µM (inactive)
GI50 (KM-20L2): 4.33 µM (inactive)
GI50 (COLO 205): 1.88 µM (inactive)
GI50 (K562): 2.32 µM (inactive)
GI50 (786-0): 2.76 µM (inactive)

CN1C=C(C(N)=O)C2CC(O)[C@@](NC(=O)CS(N)(=O)=O)(C(=O)O)C2C1 (stereo not given in full)
GI50 (HOP-18): 8.41 µM (inactive)
GI50 (A549): 3.25 µM (inactive)
GI50 (XF498): 1.27 µM (inactive)
GI50 (OVCAR-8): 5.9 µM (inactive)
GI50 (RXF 393): 1.76 µM (inactive)
GI50 (OVCAR-4): 2.09 µM (inactive)
GI50 (DMS-114): 2.52 µM (inactive)
GI50 (SF-268): 3.02 µM (inactive)
GI50 (TK-10): 3.92 µM (inactive)
GI50 (IGROV-1): 2.73 µM (inactive)
GI50 (M14): 1.49 µM (inactive)
GI50 (HL-60): < 0.01 µM (active)
GI50 (HT-29): 3.33 µM (inactive)
GI50 (SK-MEL-2): 2.92 µM (inactive)
GI50 (NCI-H23): 1.86 µM (inactive)
GI50 (KM12): 20.7 µM (inactive)
GI50 (OVCAR-5): 2.42 µM (inactive)
GI50 (SF-539): 2.05 µM (inactive)
GI50 (DMS-273): 3.21 µM (inactive)
GI50 (SN12C): 18.2 µM (inactive)
GI50 (NCI-H460): 3.49 µM (inactive)
GI50 (CAKI-1): 5.46 µM (inactive)
GI50 (HOP-92): 1.49 µM (inactive)
GI50 (SK-OV-3): 2.47 µM (inactive)
GI50 (HCT-15): 8.91 µM
GI50 (U-251): 3.05 µM (inactive)
GI50 (SNB-75): 2.23 µM (inactive)
GI50 (A498): 2.03 µM (inactive)
GI50 (SR): 2.02 µM (inactive)
GI50 (RXF 631): 2.98 µM (inactive)
GI50 (HOP-62): 1.82 µM (inactive)
GI50 (SK-MEL-28): 2.43 µM (inactive)
GI50 (SW-620): 3.87 µM (inactive)
GI50 (OVCAR-3): 17.5 µM (inactive)
GI50 (MOLT-4): 1.7 µM (inactive)
GI50 (UO-31): 3.05 µM (inactive)
GI50 (EKVX): 4.19 µM (inactive)
GI50 (UACC-62): 2.17 µM (inactive)
GI50 (CCRF-CEM): 9.33 µM (inactive)
GI50 (SNB-78): 2.75 µM (inactive)
GI50 (NCI-H226): 2.68 µM (inactive)
GI50 (HCT-116): 3.32 µM (inactive)
GI50 (Malme-3M): 4.57 µM (inactive)
GI50 (SNB-19): 2.79 µM (inactive)
GI50 (M19-MEL): 4.39 µM (inactive)
GI50 (SF-295): 2.75 µM (inactive)
GI50 (LOX IMVI): 2.37 µM (inactive)
GI50 (RPMI-8226): 18 µM (inactive)
GI50 (ACHN): 4.88 µM (inactive)
GI50 (SK-MEL-5): 6.31 µM (inactive)
GI50 (DLD-1): 16.8 µM (inactive)
GI50 (UACC-257): 5.24 µM (inactive)
GI50 (NCI-H522): 11.7 µM (inactive)
GI50 (KM-20L2): 3.79 µM (inactive)
GI50 (COLO 205): 14.1 µM (inactive)
GI50 (HCC 2998): 18.5 µM (inactive)
GI50 (K562): 2.17 µM (inactive)
GI50 (786-0): 3.61 µM (inactive)
